Molecules are shown by their SMILES.

The target of test [1] is Glycogen synthase kinase-3 (Homo sapiens) (UniProt P49840+P49841). The test can be described thus: Inhibition of GSK3 (unknown origin) at 30 uM by microfluidic assay relative to control. Type of test: protein assay.
Test [2] concerns the target T1, Vascular endothelial growth factor receptor 2 (Homo sapiens, UniProt P35968). Nature of the test: Inhibition of VEGFR-2 (unknown origin) at 30 uM by microfluidic assay relative to control.
For test [3], the target named is Proto-oncogene tyrosine-protein kinase Src (Homo sapiens) (UniProt P12931). The test can be described thus: Inhibition of SRC (unknown origin) at 30 uM by microfluidic assay relative to control.
For test [4], the target named is Tyrosine-protein kinase ABL1 (Homo sapiens) (UniProt P00519). The test can be described thus: Inhibition of ABL (unknown origin) at 30 uM by microfluidic assay relative to control.
In test [5] the target is Serine/threonine-protein kinase Chk2 (Homo sapiens) (UniProt O96017). The test can be described thus: Inhibition of CHK2 (unknown origin) at 30 uM by microfluidic assay relative to control.
Sequence of Serine/threonine-protein kinase Chk2 (Homo sapiens) (O96017 whole entry): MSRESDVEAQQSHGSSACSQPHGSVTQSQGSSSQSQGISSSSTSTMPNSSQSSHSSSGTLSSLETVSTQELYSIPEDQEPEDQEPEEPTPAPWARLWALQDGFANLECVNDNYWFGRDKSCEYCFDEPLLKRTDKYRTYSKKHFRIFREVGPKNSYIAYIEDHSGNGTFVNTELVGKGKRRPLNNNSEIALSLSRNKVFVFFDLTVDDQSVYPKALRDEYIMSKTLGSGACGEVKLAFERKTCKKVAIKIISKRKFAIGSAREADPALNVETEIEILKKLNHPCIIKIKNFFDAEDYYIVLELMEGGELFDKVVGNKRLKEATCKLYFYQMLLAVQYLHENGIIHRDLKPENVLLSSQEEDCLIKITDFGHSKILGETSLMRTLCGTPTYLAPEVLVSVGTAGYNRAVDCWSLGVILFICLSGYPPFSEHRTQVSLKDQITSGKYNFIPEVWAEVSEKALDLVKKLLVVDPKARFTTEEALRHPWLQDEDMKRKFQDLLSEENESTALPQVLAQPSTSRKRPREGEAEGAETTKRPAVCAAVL
The target of test [6] is Protein kinase C (PKC) (Homo sapiens) (UniProt O94806+P41743+P17252+P05129+Q05655+P05771+Q05513+Q02156+P24723+Q15139+Q04759). The test can be described thus: Inhibition of PKC (unknown origin) at 30 uM by microfluidic assay relative to control.
For test [7], the target named is Mitogen-activated protein kinase 3 (Homo sapiens) (UniProt P27361). Nature of the test: Inhibition of Erk1 (unknown origin) at 30 uM by microfluidic assay relative to control.
The target in test [8] is Tyrosine-protein kinase Fyn (Homo sapiens) (UniProt P06241). Nature of the test: Inhibition of FYN (unknown origin) at 30 uM by microfluidic assay relative to control.
Test [9] deals with T2, MAP kinase-activated protein kinase 5 (Homo sapiens) (UniProt Q8IW41).
T2 sequence (whole entry): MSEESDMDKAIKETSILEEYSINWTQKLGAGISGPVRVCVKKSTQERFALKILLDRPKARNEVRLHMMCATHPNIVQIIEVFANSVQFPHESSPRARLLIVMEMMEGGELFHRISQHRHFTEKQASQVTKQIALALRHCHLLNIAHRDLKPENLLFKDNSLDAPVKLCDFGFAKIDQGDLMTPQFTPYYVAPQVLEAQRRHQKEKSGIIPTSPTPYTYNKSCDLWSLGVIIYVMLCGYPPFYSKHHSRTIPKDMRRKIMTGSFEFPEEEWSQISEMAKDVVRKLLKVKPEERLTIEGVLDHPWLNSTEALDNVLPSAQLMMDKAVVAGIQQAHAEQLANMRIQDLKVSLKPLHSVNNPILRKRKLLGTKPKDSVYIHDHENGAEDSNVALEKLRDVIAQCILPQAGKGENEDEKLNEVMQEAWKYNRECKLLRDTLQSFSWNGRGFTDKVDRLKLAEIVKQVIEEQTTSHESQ
The test can be described thus: Inhibition of MAPKAPK5 (unknown origin) at 30 uM by microfluidic assay relative to control.

Test [10] has as its target Ribosomal protein S6 kinase alpha-1 (Homo sapiens) (UniProt Q15418). Nature of the test: Inhibition of RSK1 (unknown origin) at 30 uM by microfluidic assay relative to control.
Test [11] concerns the target MAP kinase-activated protein kinase 2 (Homo sapiens) (UniProt P49137). Nature of the test: Inhibition of MK2 (unknown origin) at 30 uM by microfluidic assay relative to control.
For test [12], the target named is T3, Serine/threonine-protein kinase Chk1 (Homo sapiens) (UniProt O14757).
T3 sequence (whole entry): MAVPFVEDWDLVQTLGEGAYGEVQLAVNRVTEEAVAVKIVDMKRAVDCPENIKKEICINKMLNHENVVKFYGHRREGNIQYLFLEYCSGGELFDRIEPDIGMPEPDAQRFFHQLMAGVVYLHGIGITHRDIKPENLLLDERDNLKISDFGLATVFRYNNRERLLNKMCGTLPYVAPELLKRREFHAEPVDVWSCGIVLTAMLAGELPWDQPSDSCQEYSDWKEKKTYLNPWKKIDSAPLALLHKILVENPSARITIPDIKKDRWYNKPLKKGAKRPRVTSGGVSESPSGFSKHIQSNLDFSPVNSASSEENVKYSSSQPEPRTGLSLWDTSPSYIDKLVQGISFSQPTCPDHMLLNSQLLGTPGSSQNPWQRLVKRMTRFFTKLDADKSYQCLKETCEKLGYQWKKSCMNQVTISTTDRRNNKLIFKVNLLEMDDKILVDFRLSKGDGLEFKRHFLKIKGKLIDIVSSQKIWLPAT
Nature of the test: Inhibition of CHK1 (unknown origin) at 30 uM by microfluidic assay relative to control.

The target in test [13] is Casein kinase I isoform delta (Homo sapiens) (UniProt P48730). The test can be described thus: Inhibition of CK1d (unknown origin) at 30 uM by microfluidic assay relative to control.
Test [14] concerns the target Ribosomal protein S6 kinase alpha-5 (Homo sapiens) (UniProt O75582). The test can be described thus: Inhibition of MSK1 (unknown origin) at 30 uM by microfluidic assay relative to control.
The target in test [15] is Insulin receptor (Homo sapiens) (UniProt P06213). Nature of the test: Inhibition of InsR (unknown origin) at 30 uM by microfluidic assay relative to control.
Sequence of Insulin receptor (Homo sapiens) (P06213 28-758 limits assumed): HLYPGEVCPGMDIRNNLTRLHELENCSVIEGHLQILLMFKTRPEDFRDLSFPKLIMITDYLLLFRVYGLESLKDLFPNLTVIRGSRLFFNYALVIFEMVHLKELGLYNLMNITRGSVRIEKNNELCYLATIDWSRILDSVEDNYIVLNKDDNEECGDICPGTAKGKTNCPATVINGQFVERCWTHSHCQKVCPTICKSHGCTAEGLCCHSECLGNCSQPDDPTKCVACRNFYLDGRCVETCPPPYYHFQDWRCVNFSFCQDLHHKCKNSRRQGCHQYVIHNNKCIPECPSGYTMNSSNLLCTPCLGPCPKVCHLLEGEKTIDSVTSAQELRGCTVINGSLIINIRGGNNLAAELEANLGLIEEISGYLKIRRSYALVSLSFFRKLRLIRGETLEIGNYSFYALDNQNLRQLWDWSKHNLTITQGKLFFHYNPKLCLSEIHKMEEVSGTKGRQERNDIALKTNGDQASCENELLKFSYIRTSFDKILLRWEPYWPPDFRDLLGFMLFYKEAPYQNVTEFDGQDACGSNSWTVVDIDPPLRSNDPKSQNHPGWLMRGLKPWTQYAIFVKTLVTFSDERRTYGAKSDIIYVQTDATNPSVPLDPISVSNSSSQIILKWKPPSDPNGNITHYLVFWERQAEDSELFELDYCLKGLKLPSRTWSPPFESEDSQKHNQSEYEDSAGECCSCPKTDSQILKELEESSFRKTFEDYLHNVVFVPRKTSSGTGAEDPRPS
Sequence of Insulin receptor (Homo sapiens) (P06213 763-1382 limits assumed): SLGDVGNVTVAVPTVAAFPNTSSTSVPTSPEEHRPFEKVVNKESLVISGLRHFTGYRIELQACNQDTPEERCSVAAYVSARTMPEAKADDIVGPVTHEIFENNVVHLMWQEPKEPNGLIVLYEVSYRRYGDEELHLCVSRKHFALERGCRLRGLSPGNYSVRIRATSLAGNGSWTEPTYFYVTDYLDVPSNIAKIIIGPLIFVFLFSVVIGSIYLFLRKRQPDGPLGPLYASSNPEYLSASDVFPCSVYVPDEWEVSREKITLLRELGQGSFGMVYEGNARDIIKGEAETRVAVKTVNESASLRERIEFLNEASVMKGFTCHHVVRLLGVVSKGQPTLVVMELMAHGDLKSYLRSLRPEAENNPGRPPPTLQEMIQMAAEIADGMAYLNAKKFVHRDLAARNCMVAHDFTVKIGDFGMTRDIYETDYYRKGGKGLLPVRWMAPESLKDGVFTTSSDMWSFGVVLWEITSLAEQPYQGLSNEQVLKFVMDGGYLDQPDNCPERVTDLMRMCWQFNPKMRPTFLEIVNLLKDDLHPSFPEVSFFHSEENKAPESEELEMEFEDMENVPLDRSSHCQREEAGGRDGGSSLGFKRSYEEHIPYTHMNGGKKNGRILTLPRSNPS
Test [16] deals with T4, Aurora kinase A (Homo sapiens) (UniProt O14965).
T4 sequence (whole entry): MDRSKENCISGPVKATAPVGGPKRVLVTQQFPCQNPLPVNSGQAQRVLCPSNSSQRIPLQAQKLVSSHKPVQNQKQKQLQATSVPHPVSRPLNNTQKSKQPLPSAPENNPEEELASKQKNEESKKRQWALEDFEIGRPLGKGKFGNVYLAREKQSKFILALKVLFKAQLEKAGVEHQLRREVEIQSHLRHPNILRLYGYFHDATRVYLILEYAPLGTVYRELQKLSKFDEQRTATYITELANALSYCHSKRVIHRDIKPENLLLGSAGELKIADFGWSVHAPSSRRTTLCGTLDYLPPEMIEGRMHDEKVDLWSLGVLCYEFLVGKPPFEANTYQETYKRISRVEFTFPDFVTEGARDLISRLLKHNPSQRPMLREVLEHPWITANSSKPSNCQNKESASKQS
Nature of the test: Inhibition of AurA (unknown origin) at 30 uM by microfluidic assay relative to control.

Test [17] addresses Tyrosine-protein kinase Lyn (Homo sapiens) (UniProt P07948). The test can be described thus: Inhibition of LYN (unknown origin) at 30 uM by microfluidic assay relative to control.
For test [18], the target named is RAC-alpha serine/threonine-protein kinase (Homo sapiens) (UniProt P31749). Nature of the test: Inhibition of AKT1 (unknown origin) at 30 uM by microfluidic assay relative to control.
Test [19] deals with T1, Vascular endothelial growth factor receptor 2. Nature of the test: Inhibition of VEGFR-2 (unknown origin) by microfluidic assay relative to control.
In test [20] the target is Mitogen-activated protein kinase 1 (Homo sapiens) (UniProt P28482). Nature of the test: Inhibition of Erk2 (unknown origin) at 30 uM by microfluidic assay relative to control.
The target of test [21] is T5, Serine/threonine-protein kinase Chk1 (Homo sapiens, UniProt O14757).
T5 sequence (O14757 whole entry): T3 sequence (whole entry)
The test can be described thus: Inhibition of CHK1 (unknown origin) by microfluidic assay relative to control.

Test [22] deals with Mitogen-activated protein kinase 14 (Homo sapiens) (UniProt Q16539). The test can be described thus: Inhibition of p38a (unknown origin) at 30 uM by microfluidic assay relative to control.

Sequence of Ribosomal protein S6 kinase alpha-5 (Homo sapiens) (O75582 whole entry, looked up): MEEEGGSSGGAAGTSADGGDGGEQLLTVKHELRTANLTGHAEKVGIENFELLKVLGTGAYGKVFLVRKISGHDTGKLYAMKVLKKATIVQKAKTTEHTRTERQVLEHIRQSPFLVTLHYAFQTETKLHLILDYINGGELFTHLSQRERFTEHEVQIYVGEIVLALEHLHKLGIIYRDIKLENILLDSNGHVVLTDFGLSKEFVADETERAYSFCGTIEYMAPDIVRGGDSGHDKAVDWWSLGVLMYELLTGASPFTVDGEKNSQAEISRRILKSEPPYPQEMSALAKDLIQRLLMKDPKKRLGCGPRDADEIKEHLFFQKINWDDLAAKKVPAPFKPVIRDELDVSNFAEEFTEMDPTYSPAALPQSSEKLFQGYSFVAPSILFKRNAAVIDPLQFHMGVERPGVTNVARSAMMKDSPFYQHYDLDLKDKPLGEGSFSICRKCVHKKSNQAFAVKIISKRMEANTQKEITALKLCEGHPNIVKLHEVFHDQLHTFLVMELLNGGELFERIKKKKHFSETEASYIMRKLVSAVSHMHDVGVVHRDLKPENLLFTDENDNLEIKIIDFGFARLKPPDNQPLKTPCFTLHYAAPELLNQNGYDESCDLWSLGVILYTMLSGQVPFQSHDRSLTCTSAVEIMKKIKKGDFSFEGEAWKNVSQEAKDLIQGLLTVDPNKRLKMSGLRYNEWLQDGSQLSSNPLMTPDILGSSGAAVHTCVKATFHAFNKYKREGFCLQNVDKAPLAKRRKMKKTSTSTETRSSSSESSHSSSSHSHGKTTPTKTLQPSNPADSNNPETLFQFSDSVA
Sequence of Ribosomal protein S6 kinase alpha-1 (Homo sapiens) (Q15418 whole entry): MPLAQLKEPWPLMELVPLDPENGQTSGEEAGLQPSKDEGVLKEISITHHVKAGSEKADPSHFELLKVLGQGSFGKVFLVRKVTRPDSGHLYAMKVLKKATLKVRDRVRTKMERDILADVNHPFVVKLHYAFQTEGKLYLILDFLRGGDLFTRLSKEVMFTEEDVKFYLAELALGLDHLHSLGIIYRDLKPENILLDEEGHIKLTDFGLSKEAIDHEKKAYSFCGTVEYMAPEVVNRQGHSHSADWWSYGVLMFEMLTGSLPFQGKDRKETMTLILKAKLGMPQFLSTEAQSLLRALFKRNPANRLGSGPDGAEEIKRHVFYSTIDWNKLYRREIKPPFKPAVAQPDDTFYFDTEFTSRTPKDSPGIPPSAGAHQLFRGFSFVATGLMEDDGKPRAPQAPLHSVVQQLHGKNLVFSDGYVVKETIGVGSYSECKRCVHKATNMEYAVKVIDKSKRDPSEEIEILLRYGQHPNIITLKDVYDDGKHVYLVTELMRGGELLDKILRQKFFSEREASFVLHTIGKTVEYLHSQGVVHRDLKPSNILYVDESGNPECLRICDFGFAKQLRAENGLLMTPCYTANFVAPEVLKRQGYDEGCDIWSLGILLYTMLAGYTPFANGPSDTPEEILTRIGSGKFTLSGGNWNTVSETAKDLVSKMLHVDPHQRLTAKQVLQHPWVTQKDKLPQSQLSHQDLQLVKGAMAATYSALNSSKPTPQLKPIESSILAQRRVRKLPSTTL
Sequence of MAP kinase-activated protein kinase 2 (Homo sapiens) (P49137 whole entry, looked up): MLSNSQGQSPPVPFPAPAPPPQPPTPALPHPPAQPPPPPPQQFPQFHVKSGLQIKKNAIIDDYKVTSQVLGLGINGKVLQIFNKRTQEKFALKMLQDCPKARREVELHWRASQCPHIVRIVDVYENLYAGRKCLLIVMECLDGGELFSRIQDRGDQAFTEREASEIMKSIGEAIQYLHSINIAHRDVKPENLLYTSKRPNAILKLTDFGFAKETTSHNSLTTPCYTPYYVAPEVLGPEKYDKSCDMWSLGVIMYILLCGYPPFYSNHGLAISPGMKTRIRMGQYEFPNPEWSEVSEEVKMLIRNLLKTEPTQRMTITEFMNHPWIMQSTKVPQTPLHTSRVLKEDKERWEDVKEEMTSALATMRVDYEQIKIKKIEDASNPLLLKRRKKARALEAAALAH
Sequence of Glycogen synthase kinase-3 (Homo sapiens) (P49840 whole entry, looked up): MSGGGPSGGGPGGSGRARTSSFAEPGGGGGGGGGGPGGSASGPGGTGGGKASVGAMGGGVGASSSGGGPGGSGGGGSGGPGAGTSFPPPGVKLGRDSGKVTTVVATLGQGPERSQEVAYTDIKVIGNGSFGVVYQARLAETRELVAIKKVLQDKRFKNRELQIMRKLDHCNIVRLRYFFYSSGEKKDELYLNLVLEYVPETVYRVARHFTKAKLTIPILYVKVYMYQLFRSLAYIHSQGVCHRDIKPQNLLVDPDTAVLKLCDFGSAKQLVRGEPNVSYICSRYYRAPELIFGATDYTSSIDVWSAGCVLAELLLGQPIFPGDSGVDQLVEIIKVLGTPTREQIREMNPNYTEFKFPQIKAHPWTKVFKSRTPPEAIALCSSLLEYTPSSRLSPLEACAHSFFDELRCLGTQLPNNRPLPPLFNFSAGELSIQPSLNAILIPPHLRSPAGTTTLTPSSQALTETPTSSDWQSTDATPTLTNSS
Sequence of Glycogen synthase kinase-3 (Homo sapiens) (P49841 whole entry, looked up): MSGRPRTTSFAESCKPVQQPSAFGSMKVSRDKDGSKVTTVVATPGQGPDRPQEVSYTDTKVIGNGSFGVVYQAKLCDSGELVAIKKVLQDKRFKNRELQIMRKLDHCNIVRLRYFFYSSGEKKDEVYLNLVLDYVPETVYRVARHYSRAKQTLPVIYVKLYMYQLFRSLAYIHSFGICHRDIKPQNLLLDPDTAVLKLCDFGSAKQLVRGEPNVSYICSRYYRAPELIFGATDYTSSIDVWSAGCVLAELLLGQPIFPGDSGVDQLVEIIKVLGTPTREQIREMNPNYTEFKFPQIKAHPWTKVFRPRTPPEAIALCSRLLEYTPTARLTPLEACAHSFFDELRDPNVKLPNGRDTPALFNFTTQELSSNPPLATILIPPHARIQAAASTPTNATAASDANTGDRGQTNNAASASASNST

By inhibition is commonly meant the percentage by which the read-out fell short of the control. High values mean strong suppression, low ones little suppression. The IC50 is the midpoint of a concentration-inhibition curve. A lower IC50 goes with greater potency in that assay. In the case of `Cc1[nH]c(-c2ccccc2)c(-c2ccccc2)c1C(=O)c1cn(-c2ccccc2)nc1C(=O)Nc1ccccc1`, the inhibition worked out at 23% in test [1]; 100% in [2]; 33% in test [3]; 32% in [4]; 4% in test [5]; 44% in [6]. Also, the inhibition in test [7] amounted to 8%; in test [8] it was 21%; in test [9], 54%; in [10], 2%; in test [11] it was 26%; in [12] it was 80%. Besides, the inhibition came to 43% in test [13]; 87% in [14]; 33% in test [15]; 2% in [16]; 24% in [17]; 45% in [18]. In addition, the figures for the inhibition in [20] and in [22] were 24% and 13%, respectively. Further, the figures for the concentration for half-maximal inhibition (IC50) in test [19] and in [21] were 3.45 µM and 0.8 µM, respectively.
With `Cc1[nH]c(-c2ccccc2)c(-c2ccccc2)c1C(=O)c1coc2c1cc(O)c1ccccc12`, the inhibition is 2% in [1]; 100% in test [2]; 21% in test [3]; 4% in test [4]; 55% in test [5]; 34% in test [6]. The inhibition in test [7] was found to be 3%; in [8] it was 21%; in test [9] it was 54%; in test [10] it was 4%; in test [11] it was 76%; in [12] it was 96%. In addition, the inhibition in test [13] stood at 22%; in test [14], 34%; in test [15] it was 32%; in test [16], 23%; in test [17], 34%; in test [18] it was 13%. In addition, the inhibition in test [20] and in test [22] was 21% throughout. Moreover, the IC50 was found to be 4.56 µM in [19] and 0.31 µM in test [21].
Regarding `Cc1[nH]c(-c2ccccc2)c(-c2ccccc2)c1-c1nnc(O)c2nn(-c3ccccc3)cc12`, the inhibition in test [1] stood at 43%; in [2] it was 100%; in [3], 23%; in test [4], 5%; in [5], 24%; in test [6], 63%. The inhibition in [7] was 8%; in test [8], 12%; in test [9] it was 32%; in [10], 36%; in test [11], 19%; in [12] it was 84%. Moreover, the inhibition in test [13] was 53%; in test [14], 34%; in [15] it was 12%; in [16], 32%; in test [17], 5%; in test [18], 90%. Moreover, the inhibition was 23% in [20] and 2% in test [22]. Also, the IC50 was found to be 3.45 µM in test [19] and 0.69 µM in test [21].

The record behind these values is ChEMBL document CHEMBL3739348, “Novel pyrrole derivatives as selective CHK1 inhibitors: design, regioselective synthesis and molecular modeling” (Medchemcomm, 2015).
